The text below walks through data of paper PMC5563081, “Modulating Protein-Protein Interactions of the Mitotic Polo-like Kinases to Target Mutant KRAS” (Cell Chemical Biology, 2017).

As usually defined, the bioavailability is dose-corrected exposure relative to a reference, in per cent. A high value points to much systemic uptake. Broadly, the half-life is the time needed for the level to fall by half in the phase considered. By hepatocyte CLint is commonly meant a measure of how fast metabolising enzymes remove a compound, apart from limits set by blood flow. A word on the Kd: it is the concentration at which binding is half-saturated. Usually EC50 stands for the concentration needed to bring the measured effect to its halfway point. As usually defined, the GI50 is the concentration at which growth is held to half of that of the control.

Like-named read-outs stand apart in the source and are kept apart here.

Data set [1] in a line: Pharmacokinetic study, oral administration in mice. In kind it is in vivo, mouse. On the procedure:
Mice were dosed orally with 10mg/kg Poloppin-II, and blood samples were taken from 3 mice per time point, and frozen until all samples were available. Plasma was prepared from each sample and Poloppin-II levels analysed by a pre-established methodology (UHPLC-TOF MS using electrospray ionisation).

Data set [2] in a line: Stability in human hepatocytes. In kind it is in vitro ADME.
Data set [3] has as its system parental HeLa cells. The data set can be described thus: Live-cell imaging of cell fate, parental HeLa. In kind it is cell-based, human. To be noted: wild-type HeLa. On the procedure:
Five x10^4 cells were seeded on each well of 4-well coverglass Lab-Tek chambers in a volume of 800 μl. HeLa-G12D cells were induced with Doxycycline (Dox) 24h before seeding and kept in Dox for the rest of the experiment.
For live cell imaging analysis image sequences were viewed using ImageJ software and cell fate was analysed manually. Time spent in mitosis for different groups was compared with a Kruskal-Wallis test and Dunn's multiple comparison correction.

The target of data set [4] is PLK1 PBD (Homo sapiens, UniProt P53350). Briefly: Isothermal titration calorimetry. In kind it is binding. The arrangement: In all titrations, PBDaa345-603 protein was used at 25 μM; GST (N, cleaved yes); made in house; host or cells: E. coli C41. To be noted: ITC, 20 °C. On the procedure: In all titrations, PBDaa345-603 protein was used at 25 μM and buffered in HEPES (50 mM, pH 7.4), NaCl (200 mM), and DTT (1mM). Protein was diluted into buffer with DMSO at 5% (v/v). Poloppin was prepared by diluting from DMSO stock into the same buffer containing DMSO at 5% (v/v). Great care was taken to match the concentration of DMSO in the ligand and protein samples as closely as possible. In a typical experiment, protein (25 μM) was loaded in the sample cell, and a total of 20 injections of 8μL were made at 2 min intervals from a 200 μL syringe rotating at 1000 rpm and loaded with ligand solution (0.5 mM). […] The thermodynamic parameters were obtained by fitting the data to a single-site binding model with a stoichiometry of 1. ITC experiments were performed at 20 °C with a MicroCal ITC200 instrument, and all data were analysed with the software implemented in Origin (version 7) ([Scott et al., 2015]).
In general terms: In ITC the heat of successive injections is recorded.

Data set [5] has as its system Panc 02.03. The data set can be described thus: Cell viability (SRB), Panc 02.03. In kind it is cell-based. The settings on record: Homo sapiens, Panc 02.03, 72 h. The method, then: SW48 Parental, SW48 G12D, Panc-1, HPAF-II, Panc 02.03 and Panc 05.04 cell lines were seeded overnight at 5000 cells per well in a 96 well plate in recommended media (ATCC). Compounds were added the following day and viability was measured at 72h using the sulforhodamine B (SRB) colorimetric assay as follows. Cells were fixed by replacing media with 1% v/v Trichloroacetic Acid (TCA) (Sigma-Aldrich) at 4°C and incubated for 1h also at 4°C. Wells were washed thoroughly with copious amounts of deionised water before staining with Sulforhodamine B (SRB) (Sigma-Aldrich) solution (0.057% w/v in 1% v/v Acetic Acid (VWR)) for 30 min. Stain was aspirated and wells washed with several changes of 1% v/v Acetic Acid until unbound stain was removed, before air-drying. Bound stain was solubilized with 100μl / well 10mM Tris (pH 8.0) (Trizma Base (121.1) Sigma-Aldrich) with agitation for 10 min. Fluorescence intensity was recorded at Ex540nm / Em590nm using a BMG Pherastar Plus plate reader ([Vichai and Kirtikara, 2006]).
Pancreatic organoids were extracted and cultured as detailed above ([Boj et al., 2015]). In brief, pancreatic organoids were seeded at 600 cells per well in a 96 well plate and allowed to grow for 7 days with media replenishment on the 3rd day. Full-grown organoids were then treated with compounds for 72h and viability determined using CellTitre Glo 3D assay (Promega). For viability assays with c-MET siRNA, cells were reverse transfected in a 6 cm dish using Dharmafect 1 (GE Dharmacon) per manufacturer’s instructions. On the following day, cells were trypsinised and plated onto 96 well plates or 6 well plates. The 96 well plates were treated with a dose range of compounds or DMSO, and viability was determined via SRB colorimetric assay. […]
Cells were reverse-transfected with 50nM (SW48 parental, SW48 KRAS G12D and Panc-1) or 25nM (HeLa Flp-In T-REx parental cells) siRNA using Dharmafect (GE Dharmacon) as manufacturer’s recommendations. […] Viability was assessed after 72 hrs, with the SRB colorimetric assay. Knockdown efficiencies were determined by Western blot or RT-qPCR. […]

Data set [6] has as its system MEFs KRAS WT p53 MUT. Briefly: Cell viability in MEFs, KRAS WT p53 MUT. In kind it is cell-based. The settings on record: Mus musculus. The method, then: (§1) KrasWT mouse embryonic fibroblasts (MEFs) were derived from conditional LSL-Trp53^R172H/+ embryos. LSL-Trp53^R172H/+, LSL-Kras^G12D/+ ([Hingorani et al., 2005]) strains were interbred to obtain LSL-Kras^G12D/+, LSL-Trp53^R172H/+ Kras^G12D embryos for MEF preparation. Briefly, MEFs were derived from E13.5 embryos after decapitation and evisceration. Finely minced tissue was passed through a 16-G needle two or three times before dissociated cells were cultured in DMEM with 10% FBS. Cre-mediated recombination to activate the Kras^G12D allele was induced via addition of 500nM 4-OH Tamoxifen to the culture media overnight.

In data set [7] the test system is MEFs KRAS MUT p53 MUT. Briefly: Cell viability in MEFs, KRAS MUT p53 MUT. In kind it is cell-based. The settings on record: Mus musculus. The method, then:
as §1

Sequence of PLK1 PBD (P53350 345-603): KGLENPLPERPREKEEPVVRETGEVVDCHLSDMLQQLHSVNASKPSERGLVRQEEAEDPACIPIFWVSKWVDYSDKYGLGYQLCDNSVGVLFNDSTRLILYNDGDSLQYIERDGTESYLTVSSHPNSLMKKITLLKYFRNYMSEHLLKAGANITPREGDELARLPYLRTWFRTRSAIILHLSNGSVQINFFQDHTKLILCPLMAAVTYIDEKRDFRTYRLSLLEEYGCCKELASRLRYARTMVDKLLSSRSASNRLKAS

In data set [1] (mouse, plasma, 10 mg/kg oral), `CN(C)CCNC(=O)c1ccc(-c2ccc(-c3ccc(Cl)cc3)n2-c2ccccc2C(F)(F)F)cc1` [Poloppin-II] displayed a bioavailability of over 90%. Also, the clearance in data set [1] (mouse, plasma, oral, 10 mg/kg, read-out: calculated clearance) is 17 mL/min/kg. Besides, in data set [1] (mouse, plasma, oral, 10 mg/kg, read-out: volume of distribution), the Vd worked out at 23 L/kg. The half-life in data set [1] (mouse, plasma, per oral, 10 mg/kg) was 15 h; in data set [2], 2.27 h. Moreover, the “time for which plasma concentration >100 nM is maintained” value in data set [1] (single oral dose of 10 mg/kg) was over 24 h. Besides, the “in vivo plasma concentration maintained” value in data set [1] (single oral dose of 10 mg/kg, for >24 hr) is over 100 nM. Also, the hepatocyte CLint in data set [2] is 10 µL/min/1e6 cells.

For `O=C(O)CCc1ccc(-c2ccc(Br)cc2)n1-c1ccccc1C(F)(F)F` [Poloppin], the “average time in mitosis” value in data set [3] (Poloppin at GI50 dose (10μM), 60 min without) worked out at 100 min. Besides, the “frequency of aneuploid divisions” value in data set [3] (Poloppin at GI50 dose, 4% after DMSO) is given as 38%. Moreover, the Kd in data set [4] was determined as 29.5 µM. In addition, the EC50 in data set [5] (read-out: EC50, % survival, Panc 02.03, All Stars control siRNA, 72 h) stood at 47.1 ± 1.03 µM; in data set [5] (read-out: EC50, % survival, Panc 02.03, siMET, 72 h), 8.7 ± 1.16 µM. Also, the GI50 in data set [6] (MEFs KRAS WT p53 MUT) amounted to 51.1 ± 1.05 µM; in data set [6] (MEFs KRAS WT p53 MUT+4OHT), 43.7 ± 1.09 µM; in data set [7] (MEFs KRAS MUT p53 MUT), 49.5 ± 1.05 µM; in data set [7] (MEFs KRAS MUT p53 MUT+4OHT), 17.6 ± 1.22 µM.
